Source: patent publication US20060252807A1, “Novel ortho-terphenyl inhibitors of p38 kinase and methods of treating inflammatory disorders” (Kalypsys, Inc., priority 2005, published 2006)

What follows are compounds tested against T1, active p38 alpha enzyme (Upstate Biotechnology) (Homo sapiens, UniProt Q16539) (assay: p38α biochemical assay (ATP turnover, luminescent detection, Cambrex PKlight)). Conditions: p38α biochemical assay, Table 1 Biological Activity.
T1 construct: purchased Upstate Biotechnology
T1 sequence (Q16539 whole entry): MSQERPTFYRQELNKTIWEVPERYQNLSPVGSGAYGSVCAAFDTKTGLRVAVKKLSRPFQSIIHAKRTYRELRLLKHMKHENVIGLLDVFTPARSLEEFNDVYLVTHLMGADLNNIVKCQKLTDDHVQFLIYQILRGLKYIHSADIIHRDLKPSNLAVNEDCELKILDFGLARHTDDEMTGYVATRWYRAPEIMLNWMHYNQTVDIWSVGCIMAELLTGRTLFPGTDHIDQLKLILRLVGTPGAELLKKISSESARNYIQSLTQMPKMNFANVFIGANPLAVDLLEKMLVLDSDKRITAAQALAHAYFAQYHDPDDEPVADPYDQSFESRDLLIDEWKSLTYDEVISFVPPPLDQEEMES
In short: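 Luminescent ATP-depletion readout measures total ATP turnover by p38α phosphorylating whole MapkapK2 protein. ATP 1.4 uM final; 30C, 2 h. Compounds delivered from DMSO.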

`Cc1cc(C(=O)NCc2onc(-c3ccc(F)cc3)c2-c2nc(C(=O)NC(C)C)cs2)ccc1Br` [Example 767] and `CC(C)NC(=O)c1csc(-c2c(-c3ccc(F)cc3)noc2CNC(=O)c2ccc(Cl)nc2)n1` [Example 627] cannot be ordered by IC50: > 1000 nM for the first, > 1000 nM for the second.

`COc1ccc(C(=O)NCc2nc(-c3ccc(F)cc3)c(-c3nc(C(=O)NC(C)C)cs3)o2)c(O)c1` [Example 188] and `COc1ccc(OC)c(C(=O)NCc2nc(-c3ccc(F)cc3)c(-c3nc(C(=O)NC(C)C)cs3)o2)c1` [Example 224] cannot be ordered by IC50: > 1000 nM for the first, > 1000 nM for the second.

`CC(C)NC(=O)c1csc(-c2oc(CNC(=O)c3ccc(C#N)cc3)nc2-c2ccc(F)cc2)n1` [Example 129] and `CC(C)NC(=O)c1csc(-c2oc(CNC(=O)c3cc(F)ccc3[N+](=O)[O-])nc2-c2ccc(F)cc2)n1` [Example 236] cannot be ordered by IC50: ≤ 1000 nM for the first, ≤ 1000 nM for the second.

`CCC(C(=O)NCc1nc(-c2ccc(F)cc2)c(-c2nc(C(=O)NC(C)C)cs2)o1)c1ccccc1` (stereo not shown) [Example 174] and `CC(C)NC(=O)c1csc(-c2oc(CNC(=O)C(C)O)nc2-c2ccc(F)cc2)n1` (stereo not shown) [Example 101] cannot be ordered by IC50: > 1000 nM for the first, ≤ 1000 nM for the second.

`CC(C)NC(=O)c1csc(-c2c(-c3ccc(F)cc3)ncn2C2CCN(Cc3ccccc3)CC2)n1` [Example 88, 2-|3-(1-Benzyl-piperidin-4-yl)-5-(4-fluoro-phenyl)-3H-imidazol-4-yl|-thiazole-4-carboxylic acid isopropylamide] and `CC(C)NC(=O)c1csc(-c2oc(CN3CCN(C(=O)c4ccc(OCc5ccccc5)cc4)CC3)nc2-c2ccc(F)cc2)n1` [Example 545] cannot be ordered by IC50: > 1000 nM for the first, > 1000 nM for the second.

`CC(C)NC(=O)c1csc(-c2c(-c3ccc(F)cc3)noc2CNC(=O)c2c(F)c(F)c(F)c(F)c2F)n1` [Example 757] and `CC(C)NC(=O)c1csc(-c2c(-c3ccc(F)cc3)noc2CNC(=O)c2ccccc2C(F)(F)F)n1` [Example 724] cannot be ordered by IC50: > 1000 nM for the first, > 1000 nM for the second.

`CC(C)NC(=O)c1csc(-c2c(-c3ccc(F)cc3)noc2CNC(=O)CCc2cccc(Br)c2)n1` [Example 785] and `CC(C)NC(=O)c1csc(-c2c(-c3ccc(F)cc3)noc2CNC(=O)c2cc3ccccc3o2)n1` [Example 638] cannot be ordered by IC50: > 1000 nM for the first, > 1000 nM for the second.

`CC(C)NC(=O)c1csc(-c2oc(CNC(=O)C3CCc4ccccc43)nc2-c2ccc(F)cc2)n1` (stereo not shown) [Example 164] and `CC(C)NC(=O)c1csc(-c2oc(CNC(=O)/C=C/c3ccccc3C(F)(F)F)nc2-c2ccc(F)cc2)n1` [Example 296] cannot be ordered by IC50: > 1000 nM for the first, > 1000 nM for the second.

`CC(C)NC(=O)c1csc(-c2oc(CN3CCN(C(=O)CCc4cccc(C(F)(F)F)c4)CC3)nc2-c2ccc(F)cc2)n1` [Example 537] and `Cc1cccc(C(=O)N2CCN(Cc3nc(-c4ccc(F)cc4)c(-c4nc(C(=O)NC(C)C)cs4)o3)CC2)c1[N+](=O)[O-]` [Example 458] cannot be ordered by IC50: > 1000 nM for the first, > 1000 nM for the second.

`CC(=O)NCc1nc(-c2ccc(F)cc2)c(-c2nc(C(=O)NC(C)C)cs2)[nH]1` [Example 85, 2-|2-(Acetylamino-methyl)-5-(4-fluoro-phenyl)-3H-imidazol-4-yl|-thiazole-4-carboxylic acid isopropylamide] and `CC(CC(=O)NCc1nc(-c2ccc(F)cc2)c(-c2nc(C(=O)NC(C)C)cs2)o1)CC(C)(C)C` (stereo not shown) [Example 162] cannot be ordered by IC50: ≤ 1000 nM for the first, > 1000 nM for the second.

`COc1cc(OC)c(C(=O)N2CCN(Cc3nc(-c4ccc(F)cc4)c(-c4nc(C(=O)NC(C)C)cs4)o3)CC2)c(OC)c1` [Example 520] and `CC(C)NC(=O)c1csc(-c2oc(CN3CCN(C(=O)c4cn(C)cn4)CC3)nc2-c2ccc(F)cc2)n1` [Example 354] cannot be ordered by IC50: ≤ 1000 nM for the first, ≤ 1000 nM for the second.

`CC(C)NC(=O)c1csc(-c2c(-c3ccc(F)cc3)noc2CNC(=O)c2ccccc2-c2ccccc2)n1` [Example 742] and `Cc1c(C(=O)NCc2onc(-c3ccc(F)cc3)c2-c2nc(C(=O)NC(C)C)cs2)oc2ccccc12` [Example 677] cannot be ordered by IC50: > 1000 nM for the first, > 1000 nM for the second.

`CC(C)NC(=O)c1csc(-c2oc(CN3CCN(C(=O)c4ccc5cccc(O)c5n4)CC3)nc2-c2ccc(F)cc2)n1` [Example 483] and `CC(C)NC(=O)c1csc(-c2oc(CN3CCN(C(=O)c4ccc(Oc5ccccc5)cc4)CC3)nc2-c2ccc(F)cc2)n1` [Example 527] cannot be ordered by IC50: ≤ 1000 nM for the first, ≤ 1000 nM for the second.

`COc1ccc(C(=O)NCc2onc(-c3ccc(F)cc3)c2-c2nc(C(=O)NC(C)C)cs2)c(O)c1` [Example 663] and `COc1ccccc1/C=C/C(=O)NCc1onc(-c2ccc(F)cc2)c1-c1nc(C(=O)NC(C)C)cs1` [Example 680] cannot be ordered by IC50: > 1000 nM for the first, > 1000 nM for the second.

`CCC(C)C(NC(=O)OC(C)(C)C)C(=O)NCc1nc(-c2ccc(F)cc2)c(-c2nc(C(=O)NC(C)C)cs2)o1` (stereo not shown) [Example 328] and `CC(C)NC(=O)c1csc(-c2c(-c3ccc(F)cc3)noc2CNC(=O)/C=C/c2ccccc2C(F)(F)F)n1` [Example 771] cannot be ordered by IC50: > 1000 nM for the first, > 1000 nM for the second.

Same assay, conditions: p38α kinase; Table 1 Biological Activity

`Cc1ccc(S(=O)(=O)NCCNC(=O)c2csc(-c3sc(C)nc3-c3ccc(F)cc3)n2)cc1` [Example 1832] and `Cc1nc(-c2ccc(F)cc2)c(-c2nc(C(=O)NCCc3ccccc3Cl)cs2)s1` [Example 1802] cannot be ordered by IC50: ≤ 1000 nM for the first, ≤ 1000 nM for the second.

`CCCCN(Cc1ccccc1)Cc1onc(-c2ccc(F)cc2)c1-c1nc(C(=O)NC(C)C)cs1` [Example 1569] and `CC(C)NC(=O)c1csc(-c2oc(CN(CCN(C)C)Cc3ccccc3)nc2-c2ccc(F)cc2)n1` [Example 1252] cannot be ordered by IC50: > 1000 nM for the first, > 1000 nM for the second.

`CC(C)NC(=O)c1csc(-c2oc(CN3CCN(c4ccc(O)cc4)CC3)nc2-c2ccc(F)cc2)n1` [Example 1251] and `CC(C)NC(=O)c1csc(-c2oc(CN3CCN(CC4CCCCC4)CC3)nc2-c2ccc(F)cc2)n1` [Example 1255] cannot be ordered by IC50: > 1000 nM for the first, > 1000 nM for the second.

`CC(C)NC(=O)c1csc(-c2c(-c3ccc(F)cc3)noc2CNc2ccccc2-n2cccc2)n1` [Example 1679] and `CC(=O)c1cccc(NCc2onc(-c3ccc(F)cc3)c2-c2nc(C(=O)NC(C)C)cs2)c1` [Example 1658] cannot be ordered by IC50: > 1000 nM for the first, ≤ 1000 nM for the second.

`CC(C)NC(=O)c1csc(-c2c(-c3ccc(F)cc3)noc2CNCCN2CCCC2)n1` [Example 1424] and `CC(C)NC(=O)c1csc(-c2c(-c3ccc(F)cc3)noc2CN2CCSCC2)n1` [Example 1529] cannot be ordered by IC50: ≤ 1000 nM for the first, > 1000 nM for the second.

`Cc1cccc(NCc2nc(-c3ccc(F)cc3)c(-c3nc(C(=O)NC(C)C)cs3)o2)c1C` [Example 1321] and `CC(C)NC(=O)c1csc(-c2oc(CNCc3cccnc3)nc2-c2ccc(F)cc2)n1` [Example 1085] cannot be ordered by IC50: > 1000 nM for the first, > 1000 nM for the second.

`C[C@@H](NC(=O)c1csc(-c2c(-c3ccc(F)cc3)n[nH]c2C2CCNCC2)n1)c1ccccc1` [Example 2075] and `CCOc1ccccc1C(=O)N1CCC(c2[nH]nc(-c3ccc(F)cc3)c2-c2nc(C(=O)NC(C)C)cs2)CC1` [Example 893] cannot be ordered by IC50: > 1000 nM for the first, > 1000 nM for the second.

`Cc1nc(-c2ccc(F)cc2)c(-c2nc(C(=O)N(Cc3cccnc3)Cc3cccnc3)cs2)s1` [Example 1928] and `Cc1nc(-c2ccc(F)cc2)c(-c2nc(C(=O)NCCCn3ccnc3)cs2)s1` [Example 1761] cannot be ordered by IC50: > 1000 nM for the first, ≤ 1000 nM for the second.

`CC(C)NC(=O)c1csc(-c2c(-c3ccc(F)cc3)n[nH]c2C2CCN(C(=O)C=O)CC2)n1` [Example 813] and `CC(C)NC(=O)c1csc(-c2c(-c3ccc(F)cc3)n[nH]c2C2CCN(C(=O)C3CCCO3)CC2)n1` (stereo not shown) [Example 823] cannot be ordered by IC50: ≤ 1000 nM for the first, ≤ 1000 nM for the second.

`Cc1nc(-c2ccc(F)cc2)c(-c2nc(C(=O)N3CCN(C)CC3)cs2)s1` [Example 1849] and `CCOC(=O)N1CCN(C(=O)c2csc(-c3sc(C)nc3-c3ccc(F)cc3)n2)CC1` [Example 1889] cannot be ordered by IC50: > 1000 nM for the first, > 1000 nM for the second.

`Cc1nc(-c2ccc(F)cc2)c(-c2nc(C(=O)NCCO)cs2)s1` [Example 1712] and `Cc1nc(-c2ccc(F)cc2)c(-c2nc(C(=O)N3CCC(NC(=O)OC(C)(C)C)C3)cs2)s1` (stereo not shown) [Example 1910] cannot be ordered by IC50: ≤ 1000 nM for the first, > 1000 nM for the second.

`CC(C)NC(=O)C1=CSC(c2c(-c3ccc(F)cc3)noc2CN2CCN(c3ccc(F)cc3)CC2)=NC1` [Example 1580] and `CC(=O)N[C@H]1CCN(Cc2onc(-c3ccc(F)cc3)c2-c2nc(C(=O)NC(C)C)cs2)C1` [Example 1545] cannot be ordered by IC50: > 1000 nM for the first, > 1000 nM for the second.

`CC(C)NC(=O)c1csc(-c2c(-c3ccc(F)cc3)noc2CNc2cc(C(F)(F)F)ccc2C(F)(F)F)n1` [Example 1697] and `CC(C)NC(=O)c1csc(-c2c(-c3ccc(F)cc3)noc2CN(C)Cc2cccc3ccccc23)n1` [Example 1609] cannot be ordered by IC50: > 1000 nM for the first, > 1000 nM for the second.

`Cc1ccc(N2CCN(C(=O)c3csc(-c4sc(C)nc4-c4ccc(F)cc4)n3)CC2)c(C)c1` [Example 1918] and `CC(C)NC(=O)c1csc(-c2c(-c3ccc(F)cc3)n[nH]c2C2CCN(C(=O)c3cc([N+](=O)[O-])ccc3O)CC2)n1` [Example 948] cannot be ordered by IC50: > 1000 nM for the first, > 1000 nM for the second.

`CC(C)NC(=O)c1csc(-c2oc(CNC(CO)C(C)C)nc2-c2ccc(F)cc2)n1` (stereo not shown) [Example 1083] and `CC(C)NC(=O)c1csc(-c2oc(CNC3CCCCC3)nc2-c2ccc(F)cc2)n1` [Example 1077] cannot be ordered by IC50: > 1000 nM for the first, > 1000 nM for the second.

`CC(C)NC(=O)c1csc(-c2c(-c3ccc(F)cc3)noc2CN2CCC(N(C)C(=O)OC(C)(C)C)C2)n1` (stereo not shown) [Example 1605] and `CC(C)NC(=O)c1csc(-c2c(-c3ccc(F)cc3)n[nH]c2C2CCN(C(=O)C(NC(=O)OC(C)(C)C)C(C)C)CC2)n1` (stereo not shown) [Example 1012] cannot be ordered by IC50: > 1000 nM for the first, > 1000 nM for the second.

`CC(C)NC(=O)c1csc(-c2oc(CNC3CCc4ccccc43)nc2-c2ccc(F)cc2)n1` (stereo not shown) [Example 1112] and `CC(C)NC(=O)c1csc(-c2oc(CNCCc3ccccc3)nc2-c2ccc(F)cc2)n1` [Example 1099] cannot be ordered by IC50: > 1000 nM for the first, > 1000 nM for the second.

`CC(C)NC(=O)c1csc(-c2c(-c3ccc(F)cc3)n[nH]c2C2CCN(C(=O)C(Cc3ccccn3)NC(=O)OC(C)(C)C)CC2)n1` (stereo not shown) [Example 1046] and `CC(C)NC(=O)c1csc(-c2c(-c3ccc(F)cc3)n[nH]c2C2CCN(C(=O)Cc3cccc(O)c3)CC2)n1` [Example 858] cannot be ordered by IC50: > 1000 nM for the first, > 1000 nM for the second.

In the case of `CC(C)NC(=O)c1csc(-c2oc(CN(C)CC(O)c3ccccc3)nc2-c2ccc(F)cc2)n1` (stereo not shown) [Example 1235], the IC50 is reported as > 1000 nM.
